Data set [1] has as its system HepG2 cells. Nature of the data set: Cytotoxicity of HepG2 cells with CellTox Green, fluidics device (flow) versus static culture, EC50 based on AUC exposure.
Method: (§1) To compare the effects of flow on response of HepG2 cells to Tamoxifen, cells were treated in the wells of the fluidics device where the drug was applied either to the source well at two different rates (2× and 3×), or was applied directly to individual wells in the absence of flow (static). For each condition, HepG2 cells were seeded into the individual wells of the fluidics device at a density of 30,000 cells per well in 50 uL media. This density corresponded to approximately 60% confluence. […] HepG2 cells in a fluidics device were treated with increasing concentrations of Tamoxifen over time. 150 uM of Tamoxifen was infused into the source well of the fluidics device either 2 times per day (2×) or three times per day (3×). Two acellular rows were infused with 1 uM Fluorscein to enable calculation of absolute concentration at any given time. The reagent CellTox™ Green was used to monitor cellular toxicity. Area under the curve values for each timepoint were obtained and plotted against effect expressed as a % maximum of (treated/control). Data was pooled together to obtain a single plot. EC50 values were calculated by a Sigmoid EMax model in PKSolver.
(§2) For the 2× and 3× experiment, to utilize Fluorescein as a standard for concentration, rows A and B remained acellular. After acclimating one day, media was changed to media containing a 1:2000 dilution of CellTox™ Green using volume of 100 uL per well. 400 uL of CellTox™ Green containing media was also added to the source well. Fluidic connections were allowed to form and stabilize for 30 minutes at 37° C. in a humidified incubator. Once fluid connections in each row was confirmed, 200 uL of media containing CellTox™ Green with either 150 uM Tamoxifen in 0.1% DMSO or 0.1% DMSO alone was added to the source well. To rows A&B, 200 uL of 1 uM Fluorescein in 0.1% DMSO was added to the source well. For all conditions, fluorescence was monitored using a Tecan Infinite Pro M1000 multimode plate reader optimized for Z-heights focal plane. For the 2× and 3× plates, media flow was maintained by syphoning 100 uL from well 11 and applying 100 uL fresh dosing solution to the source well at cadence corresponding to twice pre day (2×) or three times per day (3×).
(§3) For static fluid conditions, after seeding, cells acclimated for one day and then media was changed to 50 uL of media containing the noted concentration of Tamoxifen in 0.1% DMSO or 0.1% DMSO alone. Incubation proceeded for 24 hours where analysis of fluorescence determined the degree of cell death in each well. Nine replicates of each concentration were averaged.
(§4) For determining the concentration at any given time in the 2× and 3× flow plates, the RFU values obtained from the a-cellular Fluorescein control rows were averaged for each column and an actual Fluorescein concentration was determined using the Fluorescein Standard curve (see FIG. 33). The starting concentration of Fluorescein was 1 uM and the starting concentration of Tamoxifen was 150 uM therefore, the amount of fluorescein in each well was multiplied by 150 to obtain the corresponding concentration of Tamoxifen. The area under the curve (AUC) for each timepoint was obtained by multiplying the concentration value by the time in hours since the last time point using the AUCt function in PKSolver. For static conditions, the concentration was constant for the entire treatment time, therefore to obtain AUC the concentration was multiplied by 24 hours. […]
Data set [2] deals with HepG2 cells.
Method: as §1, §2, §3, §4
A further data set has as its system cultured cells. Put plainly: Viable cells by CellTiter-Glo, static plates versus fluidics device cultured cells treated over 7 and 9 days. The format is cell-based. An excerpt:
Referring to FIG. 46, a comparison of static plates and fluidics device 100 cultured cells treated with acetaminophen (APAP) over 7 and 9 days is depicted. CellTiter-Glo was used to measure viable cells. Data is normalized to vehicle (DMSO) control.
In general terms: In ATP-based viability assays light output follows the ATP content of the culture.

Read-outs that look alike come from different tables or passages of the source.

For the compound `CC/C(=C(\c1ccccc1)c1ccc(OCCN(C)C)cc1)c1ccccc1` [Tamoxifen], the “sensitivity of HepG2 cells in the flow system relative to static systems (comparison of AUC EC-50s)” value in the data set on HepG2 cells [1] (CellTox Green, flow system less sensitive than static) is “approximately 4 fold”. In addition, the “Observed EC-50 in downstream wells versus expected when using standard static culture methods” value in the data set with HepG2 cells [1] (fluidics device downstream wells) is “different from expected”. In addition, the “what the observed EC50 suggests (effect of metabolism on cytotoxicity)” value in the data set on HepG2 cells [1] (fluidics device downstream wells versus static) is listed as “deactivation”.
On to `CC(=O)Nc1ccc(O)cc1` [APAP, Acetaminophen], for which the “Observed EC-50 in downstream wells versus expected when using standard static culture methods” value in the data set with HepG2 cells [2] is recorded as “different from expected”. Moreover, the “what the observed EC50 suggests (effect of metabolism on cytotoxicity)” value in the data set with HepG2 cells [2] is “bio-activation of a toxic intermediate”. In addition, the “toxicity (viable cells, normalized to vehicle control)” value is recorded as “downstream cell death effect” in the data set on cultured cells (fluidics device, Day 7); “More pronounced downstream metabolite effect” in the data set with cultured cells (fluidics device, Day 9); “marginal effect” with cultured cells (static plate, Day 9, 2.5 mM); “obvious cell death” in the data set with cultured cells (static plate, Day 9, highest concentration 5 mM); “marginally detectable only at highest concentration” with cultured cells (static plates, Day 7).
